Patent publication US9128100B2, “Non-invasive diagnostic method for the evaluation of intestinal lactase deficiency (hypolactasia)” (Venter Pharma, S.L., priority 2012, dated 2015)
Several values for one entry are separate records, joined by “and”; a condition that tells them apart may be missing. Equal values may be shown once.

What was measured:
intestinal lactase [1] = biological target: T1, intestinal lactase (Homo sapiens, UniProt P09848); assay: 4-GX test in 90-minutes blood, patients with symptoms suggestive of lactose intolerance; format: in vivo
T1 construct: after its oral administration it is hydrolysed by the intestinal mucosa enzyme; from tissue; host or cells: small-intestinal mucosa (enterocyte brush border) of living human volunteers and patients, in vivo
Protocol: The diagnostic tests to which these patients were subjected were: • Intestinal biopsy: determining intestinal lactase activity therein. • Hydrogen breath test after the oral administration to patients of 50 g of lactose. While this test was being carried out, several capillary-blood glucose test (Glycemia tests) were carried out, calculating the highest increase observed in the blood glucose concentration compared to basal glucose level before starting the test. • 4-GX test in total urine at 0-4 and 0-5 hours, which was orally administered to patients 0.5 g of this product (or 0.45 g in a 4-GX sample including 10 wt % water), collecting the total urine accumulated over 0-4 h and 0-5 h following the administration of 4-GX and determining the amount of excreted xylose in both volumes of urine. • 4-GX test in blood which was orally administered to patients 3 g of this product (or 2.7 g in a 4-GX sample including 10 wt % water) to determine the concentration of plasma xylose in a blood sample 90 minutes after ingestion of the product. The concentration obtained was compared to a basal blood sample extracted before ingestion of 4-GX.
The 4-GX was orally administered in a single dose dissolved in 100 ml of water.
The blood samples were centrifuged to obtain plasma in which the analysis of the amount of xylose present was performed.
From the data obtained from the various urine tests for intestinal lactase deficiency following oral ingestion of 4-GX described in the present invention, a descriptive statistical analysis was performed of the amount of xylose excreted in the urine up to 4 hours and up to 5 hours following said administration. The same was done with the blodd test for intestinal lactase activity following oral ingestion of 4-GX, where descriptive statistical analysis was performed on the amount of xylose present in the plasma of subjects at 90 minutes following administration of 4-GX. The net increase in the plasma xylose concentration compared to basal values was also calculated.
To obtain the statistical parameters of lactase determination using the various 4-GX tests described in the present invention and later to compare them with the results obtained from the intestinal biopsy test, hydrogen in exhaled air test and capillary-blood glucose test, the normal limits of the measurement of the total amount of xylose excreted in 4-hour and 5-hour urine and the concentration of blood xylose after 90 minutes following ingestion of 4-GX described in Table 5 were used. The normal limits for the other tests were those used in common clinical practice for the diagnosis of lactose intolerance (Arola, H. (1994) Diagnosis of hypolactasia and lactose malabsorption. Scand. J. Gastroenterol. […] (Suppl), 26-35), which are:
For the measurement of lactase by intestinal biopsy, the lower normal limit is established at 10 units/g protein, with values less than this being considered positive.

intestinal lactase [2] = biological target: T1, intestinal lactase; settings: ES 2208099, cited from earlier work
intestinal lactase [3] = biological target: T1, intestinal lactase; assay: Plasma xylose concentration after single oral doses of 4-GX in healthy volunteers; format: in vivo; settings: for AUC 0-t: area under the curve of plasma xylose concentration against time: mean
Protocol: Two groups of subjects were selected. […] Firstly, the lowest suitable oral dose of 4-GX administered to healthy volunteers was determined that enabled reliable detection (in terms of accuracy and reproducibility) of xylose levels in urine and blood via the analytical method to be used. In addition, the tolerance of these subjects to the various doses of 4-GX used in the test and the pharmacokinetics for each dose administered were analysed, both in urine and blood. The doses of 4-GX used were: 0.125 g, 0.250 g, 0.5 g, 1 g, 3 g and 6 g in addition to placebo in 12 healthy volunteers with washout period between doses of between three and seven days. It should be appreciated that the 4-GX doses can include small quantities of water which remain subsequent to the drying process of the 4-GX product. For example, the 4-GX product can contain about 8 wt % to about 12 wt %, most likely about 10 wt % water, based on the total weight of the product. Accordingly, the aforementioned 4-GX doses administered would actually include 0.1125 g, 0.225 g, 0.45 g, 0.9 g, 2.7 g and 5.4 g of actual 4-GX product, respectively, if they contain 10 wt % water. The study was performed with seven treatment periods and a washout time between the various periods of at least 3 days. In each study period, an ascending dose of 4-GX was administered and the serum and urine concentrations of xylose were measured at various times up to 8 hours following the administration of the drug.
The main measured variable was the quantity of xylose in urine collected following oral administration of 4-GX at the following times: basal, 0-1 h, 1-2 h, 2-3 h, 3-4 h, 4-5 h, 5-6 h, 6-7 h and 7-8 h. Secondary variables quantified were the plasma concentration of xylose measured in blood samples extracted following the oral administration of 4-GX at the following times: basal, 30 min, 60 min, 90 min, 120 min, 150 min, 3 h, 4 h, 5 h, 6 h, 7 h and 8 h. A pharmacokinetic analysis was also performed using the values of AUC (area under the curve of variation in the plasma xylose concentration against time), Cmax (maximum xylose plasma concentration), Tmax (time at which maximum xylose plasma concentration was reached) and T1/2 (elimination half-life), calculated from the plasma concentrations of xylose derived from the hydrolysis of 4-GX by intestinal lactase.
The next objective was the determination and pharmacokinetic analysis of the xylose concentration in plasma in order to identify the smallest dose of 4-GX that could be distinguished from placebo (without 4-GX administration) to be used in the 4-GX test for the diagnosis of intestinal lactase deficiency (Table 3).

[4] = 3 g 4-GX, 90-min blood, lactase in intestinal biopsy as gold standard
[5] = 3 g 4-GX, plasma at 90 min, cut-off 0.97 mg/dL, 205 patients
[6] = blood, after correcting biopsy diagnosis
[7] = blood, after correction of the biopsy diagnostic result (five discrepancies)
[8] = blood, after correction of the biopsy diagnostic result (four discrepancies)
[9] = blood, final criteria of Table 9

T1 sequence (P09848 869-1927): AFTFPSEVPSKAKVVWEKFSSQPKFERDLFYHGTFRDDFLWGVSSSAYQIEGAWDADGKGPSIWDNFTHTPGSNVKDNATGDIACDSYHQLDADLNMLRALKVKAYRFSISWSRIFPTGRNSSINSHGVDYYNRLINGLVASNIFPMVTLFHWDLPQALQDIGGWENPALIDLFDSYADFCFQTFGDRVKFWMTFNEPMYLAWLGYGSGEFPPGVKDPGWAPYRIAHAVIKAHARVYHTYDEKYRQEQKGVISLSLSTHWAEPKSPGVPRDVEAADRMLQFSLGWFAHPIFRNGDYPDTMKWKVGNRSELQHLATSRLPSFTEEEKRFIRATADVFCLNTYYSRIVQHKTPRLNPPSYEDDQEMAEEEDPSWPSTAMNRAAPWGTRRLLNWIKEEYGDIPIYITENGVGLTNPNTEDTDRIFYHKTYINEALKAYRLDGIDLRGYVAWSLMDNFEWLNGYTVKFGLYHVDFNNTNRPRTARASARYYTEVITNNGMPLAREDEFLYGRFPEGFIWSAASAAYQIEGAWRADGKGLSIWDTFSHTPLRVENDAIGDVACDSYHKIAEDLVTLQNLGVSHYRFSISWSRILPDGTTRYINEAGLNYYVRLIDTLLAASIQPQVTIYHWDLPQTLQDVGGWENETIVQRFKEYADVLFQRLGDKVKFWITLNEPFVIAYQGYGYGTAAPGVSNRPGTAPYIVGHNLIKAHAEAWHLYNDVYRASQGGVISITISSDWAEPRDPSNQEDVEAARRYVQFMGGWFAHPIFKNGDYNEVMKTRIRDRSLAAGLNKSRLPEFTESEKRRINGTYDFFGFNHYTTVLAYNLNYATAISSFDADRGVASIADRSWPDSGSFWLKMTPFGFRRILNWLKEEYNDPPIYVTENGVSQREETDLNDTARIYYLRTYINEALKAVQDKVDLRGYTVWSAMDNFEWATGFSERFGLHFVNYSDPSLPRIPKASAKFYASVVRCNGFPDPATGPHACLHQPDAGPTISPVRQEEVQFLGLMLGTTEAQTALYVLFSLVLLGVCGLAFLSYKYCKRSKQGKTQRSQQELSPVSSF

O=C[C@H](O)[C@@H](O)[C@@H](CO)O[C@@H]1O[C@H](CO)[C@H](O)[C@H](O)[C@H]1O [4-GX, 4-O-β-galactopyranosyl-D-xylose]
Negative predictive value (intestinal lactase [1]; [4]): 91.8% and 91.75%
Positive predictive value (intestinal lactase [1]; [4]): 93.4%
Sensitivity (intestinal lactase [1]; [4]): 92.5% and 92.52%
Specificity (intestinal lactase [1]; [4]): 92.7% and 92.71%
No. Negative (intestinal lactase [1]; [5]): 97
No. Positive (patients presenting intestinal lactase deficiency) (intestinal lactase [1]; [5]): 106
Percentage of patients negative (intestinal lactase [1]; [5]): 48%
Percentage of patients positive (intestinal lactase [1]; [5]): 51.7% and 52%
sensitivity calculated using the ROC curves (intestinal lactase [1]; blood samples): 92.5%
specificity calculated using the ROC curves (intestinal lactase [1]; blood samples): 92.7%
range of recalculated sensitivity, specificity, positive and negative predictive values (intestinal lactase [1]; blood test, after correcting biopsy diagnosis): 97.94-98.11
false negatives (intestinal lactase [1]; [6]): 1.89%
negative likelihood ratio (intestinal lactase [1]; [6]): 0.019
positive likelihood ratio (intestinal lactase [1]; [6]): 47.585
Negative predictive value (intestinal lactase [1]; [7]): 97.94%
Positive predictive value (intestinal lactase [1]; [7]): 98.11%
Sensitivity (intestinal lactase [1]; [7]): 98.11%
Specificity (intestinal lactase [1]; [7]): 97.94%
Negative predictive value (intestinal lactase [1]; [8]): 98.97%
Positive predictive value (intestinal lactase [1]; [8]): 99.06%
Sensitivity (intestinal lactase [1]; [8]): 99.06%
Specificity (intestinal lactase [1]; [8]): 98.97%
area under the ROC curve (intestinal lactase [1]; blood, biopsy as gold standard): 0.9268
false negatives (intestinal lactase [1]; blood, biopsy as gold standard): 7.5%
false positives (intestinal lactase [1]; blood, biopsy as gold standard): 7.3%
concordant positive results, percentage (intestinal lactase [1]; [9]): 97.2%
final number of concordant positive results (intestinal lactase [1]; [9]): 104
negative results (concordant), percentage (intestinal lactase [1]; [9]): 96.9%
number of negative results (concordant) (intestinal lactase [1]; [9]): 95
time of maximum xylose in plasma after ingestion (intestinal lactase [2]; 3 g 4-GX oral, lactose-tolerant adult volunteers): around 2 hours
dose of 4-GX sufficient for reliable detection of xylose in urine (intestinal lactase [2]; healthy lactose-tolerant adult volunteers): 0.25 g
AUC 0-t: area under the curve of plasma xylose concentration against time (intestinal lactase [3]; 4-GX 0.125 g oral): 32.49 mg/dL/h
AUC 0-t: area under the curve of plasma xylose concentration against time (intestinal lactase [3]; 4-GX 0.250 g oral): 34.25 mg/dL/h
AUC 0-t: area under the curve of plasma xylose concentration against time (intestinal lactase [3]; 4-GX 0.5 g oral): 35.53 mg/dL/h
AUC 0-t: area under the curve of plasma xylose concentration against time (intestinal lactase [3]; 4-GX 1 g oral): 36.60 mg/dL/h
AUC 0-t: area under the curve of plasma xylose concentration against time (intestinal lactase [3]; 4-GX 3 g oral): 39.24 mg/dL/h
AUC 0-t: area under the curve of plasma xylose concentration against time (intestinal lactase [3]; 4-GX 6 g oral): 41.39 mg/dL/h
lowest dose of 4-GX for which plasma xylose differs significantly from placebo (intestinal lactase [3]; healthy volunteers): 3 g
